These results are taken from patent US20260374794A1, “COMPOUNDS TARGETING MUTANT OF P53” (JACOBIO PHARMACEUTICALS CO., LTD., priority 2022, published 2026).

One assay concerns NUGC-3 (P53 Y220C). Kind of assay: Cell viability assay (CellTiter-Glo). The settings on record: NUGC-3 cells, 6 days, 37 °C. Type of assay: cell-based. How it is done: Cells were collected and counted. A desired number of cells was seeded into 96-well microplate and cultured in 37 °C cell incubator overnight. Compounds dissolved in cell culture medium were added into cell plate and cultured for 6 days. After balancing CellTiter-Glo reagent and cells at room temperature for 30 min, equal volume of CellTiter-Glo reagents was added to assay plate and shaken for 2 min for cell lysis. The cells were balanced at room temperature for 10 minutes and Luminescence signal was read using Envision. The percent of cell viability for compounds treated wells were normalized between High control and low control. Wells containing cell culture medium and same percentage DMSO served as Low control. Wells containing cells and same percentage DMSO served as High control. Cell viability (%)=(Luminescence readoutCompound treated−Luminescence readoutLow control)/(Luminescence readoutHigh control−Luminescence readoutLow control)*100%. Then the data were analyzed either by fitting a 4-parameter logistic model or by Excel to calculate IC50 values. And the IC50 was the concentration at […] Cell viability on the curve.
On the technique in general: In ATP-based viability assays light output follows the ATP content of the culture.

The target in another assay is T1, p53(Y220C) (Homo sapiens, UniProt P04637, Y220C).
T1 construct: His-p53 Y220C (94-294) protein
Kind of assay: In vitro DNA binding assay (HTRF), His-p53 Y220C (94-294) with biotinylated p53 consensus DNA. Type of assay: biochemical. The settings on record: HTRF; 27 °C; His-p53 Y220C (94-294) 2.5 nM; biotinylated DNA 10 nM; normalized to 2 μM Ref-1a; EC50 = concentration at 50% Activation; read-out: p53(Y220C) EC50. The essentials:
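His-p53 Y220C (94-294), 2.5 nM, preincubated with compound and anti-His-Tb cryptate 15 min at 25 °C then 60 min at 27 °C; 10 nM biotinylated consensus DNA with streptavidin-d2 added for 60 min more (HEPES pH 7.4, 75 mM KCl). HTRF 665/620 ratio, normalized to 2 μM Ref-1a high control; EC50 from 4-parameter fit.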

The next assay concerns the target p53(Y220C)_NUGC-3 (Homo sapiens, UniProt P04637, Y220C). The assay is described as follows: Reporter gene assay (NUGC-3_P53_Luc cells). The class given is cell-based. The settings on record: 6 hours, 37 °C, luciferase, normalized to Ref-1a 10 μM, EC50 = concentration at 50% Activity, read-out: p53(Y220C)_NUGC-3 EC50. How it is done:
NUGC-3_P53_Luc single clonal cell line was established using pGL4.38[luc2P/p53 RE/Hygro] Vector (E365A, promega). NUGC-3_P53_Luc single clonal cells were cultured in 37 °C cell incubator before use. NUGC-3_P53_Luc cells were collected and washed twice with PBS to remove phenol red and then resuspended in medium to a proper concentration. Tested compound dilutions were transferred into 384 well assay plates (PerkinElmer). A desired number of cells was seeded into the assay plate and cultured for 6 hours at 37 °C cell incubator. Britelite plus Luciferase Assay Reagent were added into each well and the luminescence value was recorded on Envision. The percent of activity value of compounds treated wells was normalized between high control and low control. Wells containing cells and Ref-la (10 μM) served as high control, and wells containing cells and same percentage of DMSO served as low control. Activity value (%)=(Luminescence readoutCompound treated−Luminescence readoutLow control)/(Luminescence readoutHigh control−Luminescence readoutLow control)*100%. Then the data were analyzed either by fitting a 4-parameter logistic model or by Excel to calculate EC50 values and the EC50 was the concentration at 50% Activity on the curve.

As to `COc1cc([S@@](C)(=N)=O)ccc1NCC#Cc1sc2c(N[C@@H]3CCN(C)C[C@H]3F)cccc2c1[C@@H](O)C(F)(F)F` [Example 59, (S)-(4-((3-(7-(((3R,4R)-3-fluoro-1-methylpiperidin-4-yl)amino)-3-((R)-2,2,2-trifluoro-1-hydroxyethyl)benzo[b]thiophen-2-yl)prop-2-yn-1-yl)amino)-3-methoxyphenyl)(imino)(methyl)-16-sulfanone], the half-inhibitory concentration (IC50) (usually the concentration needed to halve the response being measured) with NUGC-3 (P53 Y220C) (Homo sapiens, 144 h) worked out at 2060 nM. The EC50 amounted to 109 nM at p53(Y220C) and 266 nM at p53(Y220C)_NUGC-3.

`COc1cc([S@@](C)(=N)=O)ccc1NCC#Cc1sc2c(N[C@@H]3CCN(C)C[C@@H]3F)cccc2c1[C@@H](O)C(F)(F)F` [Example 60, (S)-(4-((3-(7-(((3S,4R)-3-fluoro-1-methylpiperidin-4-yl)amino)-3-((R)-2,2,2-trifluoro-1-hydroxyethyl)benzo[b]thiophen-2-yl)prop-2-yn-1-yl)amino)-3-methoxyphenyl)(imino)(methyl)-16-sulfanone] showed an IC50 in the assay with NUGC-3 (P53 Y220C) of 1800 nM. The EC50 on p53(Y220C) came out at 74 nM; at p53(Y220C)_NUGC-3 it was 281 nM.

With `COc1cc([S@@](C)(=N)=O)ccc1NCC#Cc1sc2c(N[C@H]3CCN(C)C[C@H]3F)cccc2c1[C@@H](O)C(F)(F)F` [Example 61, (S)-(4-((3-(7-(((3R,4S)-3-fluoro-1-methylpiperidin-4-yl)amino)-3-((R)-2,2,2-trifluoro-1-hydroxyethyl)benzo[b]thiophen-2-yl)prop-2-yn-1-yl)amino)-3-methoxyphenyl)(imino)(methyl)-16-sulfanone], the IC50 with NUGC-3 (P53 Y220C) (Homo sapiens, 144 h) is 380 nM. For the same compound, the EC50 came out at 36 nM on p53(Y220C) and 78 nM on p53(Y220C)_NUGC-3.
